{"source": "paper PMC9088798", "about": "“An Approach to Derive Functional Peptide Inhibitors of Transcription Factor Activity” (JACS Au, 2022)", "system": "TRE DNA", "experiment": "CD TRE DNA peak, binding of cJun to TRE DNA", "details": "cJun 20 μM, TRE DNA 5 μM, ~281 nm", "experimental": "The binding of cJun to TRE DNA can be observed by monitoring a DNA absorbance peak in the CD spectrum centered at ∼281 nm.[44] […] The addition of cJun (20 μM) to TRE DNA (5 μM) decreases this DNA peak by 55% as the cJun engages its target TRE site and alters the DNA structure (Figure 6A). Subsequent titration of HingeW into this bound cJun/TRE DNA mixture reverses the peak shift, with the peak increasing as DNA is released. […]\nµM) alongside ampicillin, kanamycin and chloramphenicol to maintain the required plasmids, and IPTG (1 mM) to induce protein expression. The library transformants were […]\nhowever a lower stringency is used initially before selection is increased in later steps.\nColonies from this first round of selection were pooled and serially grown in liquid culture at starting OD600 of 0.05 and grown at 37°C with shaking at 200 rpm until the OD600 […]\nincreased to the optimum 4 µM in subsequent passages. Bacteria containing the most effective functional antagonists were expected to produce higher levels of TRE-mDHFR which provides a growth advantage, and these will dominate the culture. […] This allows the occurrence of library members to be monitored as winner sequences are selected for. […]", "data": [{"substance": "cJun bZIP: human cJun bZIP domain, Arg252 to Leu308 (target protein)", "values": [{"measurement": "decrease of TRE DNA CD peak upon addition of cJun", "value": 55, "unit": "%"}]}]}
